This is an account of results in US20210107871A1 (priority 2017, published 2021).

This test concerns pseudotype VSV (expressing GFP) having the surface glycoprotein of Ebola virus (zaire sp.). The test can be described thus: microbe, parasite or virus in culture. Type of test: cell-based. The following applies: for activity at 0.005 µM / activity at 0.02 µM / activity at 0.078 µM / activity at 0.312 µM / activity at 1.25 µM / activity at 5 µM / activity at 0.625 µM / activity at 2.5 µM: Vesicular stomatitis virus, Vero C1008, 18 h, read-out: Viral Infection rate (%); for activity at 0.005 µM: Compound Conc. 0.005 μM; for activity at 0.02 µM: Compound Conc. 0.020 μM; for activity at 0.078 µM: Compound Conc. 0.078 μM; for activity at 0.312 µM: Compound Conc. 0.312 μM; for activity at 1.25 µM: Compound Conc. 1.25 μM; for activity at 0.625 µM: Compound Conc. 0.625 μM; for activity at 2.5 µM: Compound Conc. 2.5 μM.

The structures appear in SMILES notation.

With `CCN1CCC(CN(c2ccc(OC)cc2-c2ccccc2)S(=O)(=O)c2cccc(F)c2)CC1` [4-63, 3-fluoro-N-(4-methoxy-2-phenyl-phenyl)-N-(1-ethyl-4-piperidylmethyl)benzensulfonamide], the activity at 0.005 µM came out at 96.7%, the activity at 0.02 µM was found to be 96.2%, the activity at 0.078 µM was 78.2% and the activity at 0.312 µM stood at 34.3%. Also, the activity at 1.25 µM is 0.81%. Moreover, under “Compound Conc. 5 μM”, the activity at 5 µM was found to be 0%.

Consider `COc1ccc(N(CC2CCNCC2)S(=O)(=O)c2ccccc2)c(-c2ccccc2)c1` [4-19, N-(4-methoxy-2-phenyl-phenyl)-N-(4-piperidylmethyl)benzensulfonamide], for which the activity at 0.312 µM came to 83.3%, the activity at 0.625 µM is 78.5% and the activity at 1.25 µM is 52.3%. In addition, the activity at 5 µM (Compound Conc. 5 μM) is 2.2%.

`CCN1CCCC(CN(c2ccc(OC)cc2-c2ccccc2)S(=O)(=O)c2ccccc2)C1` (centres unmarked) [4-25]: the activity at 0.312 µM came out at 58.1%, the activity at 0.625 µM came to 24.3%, the activity at 1.25 µM came to 2.51% and the activity at 2.5 µM amounted to 0.14%. Also, the activity at 5 µM (Compound Conc. 5 μM) came out at 0.14%.

With `CCN1CCC(CN(c2ccc(C(C)(C)C)cc2-c2ccccc2)S(=O)(=O)c2ccccc2)CC1` [4-48, N-(4-t-butyl-2-phenyl-phenyl)-N-(1-ethyl-4-piperidylmethyl)benzensulfonamide], the activity at 0.005 µM was determined as 97.1%, the activity at 0.02 µM was found to be 104% and the activity at 0.078 µM turned out to be 96.3%. The activity at 5 µM (Compound Conc. 5 μM) came to 47.6%.

`CCN(CC)CCCN(c1ccc(OC)cc1[N+](=O)[O-])S(=O)(=O)c1ccc2ccccc2c1` [4-10, N-[3-(diethylamino)propyl]-N-(4-methoxy-2-nitro-phenyl)naphthalene-2-sulfonamide]: the activity at 0.312 µM came out at 106%, the activity at 0.625 µM is 103% and the activity at 2.5 µM stood at 22.7%. For the same compound, the activity at 5 µM (Compound Conc. 5 μM) was 3.57%.

For the compound `CNCCCN(c1ccc(OC)cc1-c1ccccc1)S(=O)(=O)c1ccccc1` [4-30, N-(4-methoxy-2-phenyl-phenyl)-N-[3-(methylamino)propyl]-benzensulfonamide], the activity at 0.005 µM is 92.6%, the activity at 0.02 µM turned out to be 91%, the activity at 0.078 µM came to 78.1% and the activity at 0.625 µM turned out to be 80.8%. The activity at 2.5 µM is 4.17%.

In the case of `COc1ccc(N(CCCNC(=O)OC(C)(C)C)S(=O)(=O)c2ccccc2)c(-c2ccccc2)c1` [4-31, t-butyl-N-[3-[N-(benzenesulfonyl)-4-methoxy-2-phenyl-anilino]propyl]carbamate], the activity at 0.312 µM is roughly 100%. Also, the activity at 5 µM (Compound Conc. 5 μM) is 8.51%.

As to `CCN1CCC(CN(c2ccc(C(C)C)cc2-c2ccccc2)S(=O)(=O)c2ccccc2)CC1` [4-45, N-(4-isopropyl-2-phenyl-phenyl)-N-(1-ethyl-4-piperidylmethyl)benzensulfonamide], the activity at 0.005 µM amounted to 90.8%, the activity at 0.02 µM was found to be 101%, the activity at 0.078 µM stood at 104% and the activity at 0.312 µM was found to be 103%. The activity at 1.25 µM worked out at 69.5%. Also, under “Compound Conc. 5 μM”, the activity at 5 µM is 0.23%.

For `COc1ccc(N(CC2CCCN(C)C2)S(=O)(=O)c2ccccc2)c(-c2ccccc2)c1` (centres unmarked) [4-42], the activity at 0.005 µM was 95.6%, the activity at 0.02 µM stood at 101%, the activity at 0.078 µM came to 102% and the activity at 0.312 µM was 93%. The activity at 0.625 µM worked out at 28.4% and the activity at 2.5 µM worked out at 0.25%. For the same compound, for the setting “Compound Conc. 5 μM”, the “Viral Infection rate (%)” value turned out to be 0.00% and the activity at 5 µM was roughly 0%.

Take `CCN(CC)CCCN(c1ccc(OC)cc1[N+](=O)[O-])S(=O)(=O)c1ccccc1F` [4-5, 2-fluoro-N-[3-(diethylamino)propyl]-N-(4-methoxy-2-nitro-phenyl)benzensulfonamide]: the activity at 0.625 µM was 94.2% and the activity at 1.25 µM was determined as 54.9%. Moreover, under “Compound Conc. 5 μM”, the activity at 5 µM was 3.18%.
